Experimental data taken from PubChem BioAssay (NCI).
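96-well plates; 48 h exposure; 5 concentrations. Endpoints by linear interpolation between flanking doses. Not reached: highest tested concentration assigned. Here, GI50 denotes the concentration required for 50% inhibition of growth. TGI marks complete inhibition of growth.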

How the values were obtained:
Assay in all cases: NCI-60 cell line screen, 48 h
786-0 renal = system: 786-0 renal
A498 renal = system: A498 renal
ACHN renal = system: ACHN renal
BT-549 breast = system: BT-549 breast
CAKI-1 renal = system: CAKI-1 renal
CCRF-CEM leukemia = system: CCRF-CEM leukemia
COLO 205 colon = system: COLO 205 colon
DU-145 prostate = system: DU-145 prostate
EKVX NSCLC = system: EKVX NSCLC
HCT-116 colon = system: HCT-116 colon
HCT-15 colon = system: HCT-15 colon
HOP-62 NSCLC = system: HOP-62 NSCLC
HOP-92 NSCLC = system: HOP-92 NSCLC
HS 578T breast = system: HS 578T breast
HT29 colon = system: HT29 colon
IGROV1 ovarian = system: IGROV1 ovarian
K-562 leukemia = system: K-562 leukemia
KM12 colon = system: KM12 colon
LOX IMVI melanoma = system: LOX IMVI melanoma
M14 melanoma = system: M14 melanoma
MALME-3M melanoma = system: MALME-3M melanoma
MCF7 breast = system: MCF7 breast
MDA-MB-231 breast = system: MDA-MB-231 breast
MDA-MB-435 = system: MDA-MB-435
MOLT-4 leukemia = system: MOLT-4 leukemia
NCI-H226 lung = system: NCI-H226 lung
NCI-H23 lung = system: NCI-H23 lung
NCI-H460 lung = system: NCI-H460 lung
NCI-H522 lung = system: NCI-H522 lung
NCI/ADR-RES ovarian = system: NCI/ADR-RES ovarian
OVCAR-3 ovarian = system: OVCAR-3 ovarian
OVCAR-4 ovarian = system: OVCAR-4 ovarian
OVCAR-5 ovarian = system: OVCAR-5 ovarian
PC-3 prostate = system: PC-3 prostate
RPMI-8226 leukemia = system: RPMI-8226 leukemia
RXF 393 renal = system: RXF 393 renal
SF-268 CNS = system: SF-268 CNS
SF-295 CNS = system: SF-295 CNS
SF-539 CNS = system: SF-539 CNS
SK-MEL-2 melanoma = system: SK-MEL-2 melanoma
SK-MEL-28 melanoma = system: SK-MEL-28 melanoma
SK-MEL-5 melanoma = system: SK-MEL-5 melanoma
SK-OV-3 ovarian = system: SK-OV-3 ovarian
SN12C renal = system: SN12C renal
SNB-19 CNS = system: SNB-19 CNS
SNB-75 CNS = system: SNB-75 CNS
SW-620 colon = system: SW-620 colon
T-47D breast = system: T-47D breast
TK-10 renal = system: TK-10 renal
U251 CNS = system: U251 CNS
UACC-62 melanoma = system: UACC-62 melanoma
UO-31 renal = system: UO-31 renal

Compound: COC1C(OC(=O)/C=C/C=C/C=C/C=C\C(=O)O)CCC2(CO2)C1C1(C)OC1CC=C(C)C (stereo not drawn)
- GI50 (786-0 renal): > 200 µM
- TGI (786-0 renal): > 200 µM
- GI50 (A498 renal): > 200 µM
- TGI (A498 renal): > 200 µM
- GI50 (ACHN renal): > 200 µM
- TGI (ACHN renal): > 200 µM
- GI50 (BT-549 breast): > 200 µM
- TGI (BT-549 breast): > 200 µM
- GI50 (CAKI-1 renal): > 200 µM
- TGI (CAKI-1 renal): > 200 µM
- GI50 (CCRF-CEM leukemia): > 200 µM
- TGI (CCRF-CEM leukemia): > 200 µM
- GI50 (COLO 205 colon): > 200 µM
- TGI (COLO 205 colon): > 200 µM
- GI50 (DU-145 prostate): > 200 µM
- TGI (DU-145 prostate): > 200 µM
- GI50 (EKVX NSCLC): > 200 µM
- TGI (EKVX NSCLC): > 200 µM
- GI50 (HCT-116 colon): > 200 µM
- TGI (HCT-116 colon): > 200 µM
- GI50 (HCT-15 colon): > 200 µM
- TGI (HCT-15 colon): > 200 µM
- GI50 (HOP-62 NSCLC): > 200 µM
- TGI (HOP-62 NSCLC): > 200 µM
- GI50 (HOP-92 NSCLC): > 200 µM
- TGI (HOP-92 NSCLC): > 200 µM
- GI50 (HS 578T breast): > 200 µM
- TGI (HS 578T breast): > 200 µM
- GI50 (HT29 colon): > 200 µM
- TGI (HT29 colon): > 200 µM
- GI50 (IGROV1 ovarian): > 200 µM
- TGI (IGROV1 ovarian): > 200 µM
- GI50 (K-562 leukemia): > 200 µM
- TGI (K-562 leukemia): > 200 µM
- GI50 (KM12 colon): > 200 µM
- TGI (KM12 colon): > 200 µM
- GI50 (LOX IMVI melanoma): > 200 µM
- TGI (LOX IMVI melanoma): > 200 µM
- GI50 (M14 melanoma): > 200 µM
- TGI (M14 melanoma): > 200 µM
- TGI (MALME-3M melanoma): > 200 µM
- GI50 (MCF7 breast): > 200 µM
- TGI (MCF7 breast): > 200 µM
- GI50 (MDA-MB-231 breast): > 200 µM
- TGI (MDA-MB-231 breast): > 200 µM
- GI50 (MDA-MB-435): > 200 µM
- TGI (MDA-MB-435): > 200 µM
- GI50 (MOLT-4 leukemia): > 200 µM
- TGI (MOLT-4 leukemia): > 200 µM
- GI50 (NCI-H226 lung): > 200 µM
- TGI (NCI-H226 lung): > 200 µM
- GI50 (NCI-H23 lung): > 200 µM
- TGI (NCI-H23 lung): > 200 µM
- GI50 (NCI-H460 lung): > 200 µM
- TGI (NCI-H460 lung): > 200 µM
- GI50 (NCI-H522 lung): > 200 µM
- TGI (NCI-H522 lung): > 200 µM
- GI50 (NCI/ADR-RES ovarian): > 200 µM
- TGI (NCI/ADR-RES ovarian): > 200 µM
- GI50 (OVCAR-3 ovarian): > 200 µM
- TGI (OVCAR-3 ovarian): > 200 µM
- GI50 (OVCAR-4 ovarian): > 200 µM
- TGI (OVCAR-4 ovarian): > 200 µM
- GI50 (OVCAR-5 ovarian): > 200 µM
- TGI (OVCAR-5 ovarian): > 200 µM
- GI50 (PC-3 prostate): > 200 µM
- TGI (PC-3 prostate): > 200 µM
- GI50 (RPMI-8226 leukemia): > 200 µM
- TGI (RPMI-8226 leukemia): > 200 µM
- GI50 (RXF 393 renal): > 200 µM
- TGI (RXF 393 renal): > 200 µM
- GI50 (SF-268 CNS): > 200 µM
- TGI (SF-268 CNS): > 200 µM
- GI50 (SF-295 CNS): > 200 µM
- TGI (SF-295 CNS): > 200 µM
- GI50 (SF-539 CNS): > 200 µM
- TGI (SF-539 CNS): > 200 µM
- GI50 (SK-MEL-2 melanoma): > 200 µM
- TGI (SK-MEL-2 melanoma): > 200 µM
- GI50 (SK-MEL-28 melanoma): > 200 µM
- TGI (SK-MEL-28 melanoma): > 200 µM
- GI50 (SK-MEL-5 melanoma): > 200 µM
- TGI (SK-MEL-5 melanoma): > 200 µM
- GI50 (SK-OV-3 ovarian): > 200 µM
- TGI (SK-OV-3 ovarian): > 200 µM
- GI50 (SN12C renal): > 200 µM
- TGI (SN12C renal): > 200 µM
- GI50 (SNB-19 CNS): > 200 µM
- TGI (SNB-19 CNS): > 200 µM
- GI50 (SNB-75 CNS): > 200 µM
- TGI (SNB-75 CNS): > 200 µM
- GI50 (SW-620 colon): > 200 µM
- TGI (SW-620 colon): > 200 µM
- GI50 (T-47D breast): > 200 µM
- TGI (T-47D breast): > 200 µM
- GI50 (TK-10 renal): > 200 µM
- TGI (TK-10 renal): > 200 µM
- GI50 (U251 CNS): > 200 µM
- TGI (U251 CNS): > 200 µM
- GI50 (UACC-62 melanoma): > 200 µM
- TGI (UACC-62 melanoma): > 200 µM
- GI50 (UO-31 renal): > 200 µM
- TGI (UO-31 renal): > 200 µM
